# Test results published in PubChem BioAssay AID1996.
# Details: buffer; pH 7.4; 200.0 µM
row,Structure (SMILES),solubility kinetic [µg/mL]
1,CC1(C(=O)O)CCC(C(=O)Nc2ccc(Cl)c(Cl)c2)C1(C)C (stereo not given),> 51.6
2,CC(=O)c1cccc(N=Cc2c(O)ccc3ccccc23)c1,2.3
3,O=C(Nc1cccc2ccccc12)NC1Cc2ccccc2C1,< 0.3
4,NC1=NC(=O)/C(=C/c2ccsc2)S1,19.5
5,COc1ccc2c(-c3ccccc3)cc(=S)[nH]c2c1,2.4
6,CC(=O)Nc1ccc(S(=O)(=O)Nc2ccc3ccccc3n2)cc1,14.2
7,CCOC(=O)N1CCN(c2nc3ccccn3c(=O)c2C=O)CC1,> 49.6
8,COc1ccc(/C=C2\N=C(C)OC2=O)cc1[N+](=O)[O-],25.7
9,COC(=O)c1cc(Cl)c(NC(=O)Cc2ccccc2)cc1OC,25.6
10,Cc1cccc(C(=O)NCC(=O)N2CCC2)c1,> 34.8
11,CCN1CCN(c2nc3ccccn3c(=O)c2C=O)CC1,> 42.9
12,COc1ccc(CNC(=O)CN2C(=O)c3ccccc3C2=O)cc1,4.4
13,COCCCn1c(=O)c2ccccc2n2c(=S)[nH]nc12,> 43.6
14,COc1ccccc1NCCC(=O)O,> 29.3
15,Br.C=CCN1CCc2cccc3c2[C@H]1Cc1ccc(O)c(O)c1-3,27.9
16,Cc1csc2c(=O)sc(NC(=O)c3cccs3)nc12,0.6
17,O=C(CCc1nc(-c2ccccn2)no1)NCc1ccc2c(c1)OCO2,52.5
18,CC(=O)c1c(C)cc(C)c(CSc2ccccn2)c1C,20.5
19,COc1ccc(CCN2CC(C(=O)Nc3nccs3)CC2=O)cc1OC (stereo not given),> 56.3
20,CC(C)(C)N(Cc1ccccc1)C(=O)COC(=O)c1ccc(N2CCCC2=O)cc1,2.5

row,Structure (SMILES),solubility kinetic [µg/mL]
1,COc1ccc(C(=O)Nc2ccc(CN3CCOCC3)cc2)cc1Br,14.1
2,CCC(C)NC(=S)Nc1ccc(F)cc1 (stereo not given),> 33.9
3,CCc1cccc(NC(=O)Cn2cc(C=O)c3ccccc32)c1,0.5
4,CCC(C)NC(=O)c1ccc2c(c1)N(Cc1ccccc1)C(=O)CS2 (stereo not given),3.6
5,CCOC(=O)c1cc2cc([N+](=O)[O-])ccc2oc1=O,18.9
6,Cc1ccc(N2CC(O)=C(c3ccccc3)C2=N)cc1,> 39.6
7,COC(=O)Cc1cc(=O)[nH]c(/N=C(\N)Nc2cccc(C)c2)n1,10.7
8,COc1ccccc1CNC(=O)c1sccc1-c1ccccc1,14.4
9,Cc1ccc(S(=O)(=O)NCc2ccccn2)c(C)c1C,43.2
10,O=C(c1ccc(F)cc1)N1CCC2(CC1)OCCO2,39.2
11,Fc1ccc(-c2noc(-c3ccc4c(c3)CCO4)n2)cc1,< 0.3
12,O=C(CN1CCN(c2ccccc2F)CC1)NCc1ccc(Cl)cc1,49.1
13,O=C(CC(c1ccc(F)cc1)c1ccco1)Nc1nccs1 (stereo not given),14.7
14,Cl.Fc1ccc(Nc2nc(NCc3ccco3)c3ccccc3n2)cc1,2.1
15,CN(C)C=Nc1ccc2nc3c(cc2c1)[nH]c1ccccc13,> 43.3
16,COc1ccc(C(C)=O)cc1CN1C(=O)NC2(CCCC2)C1=O,44.9
17,N#CCc1ccc(NC(=O)c2ccc(CN3CCc4ccccc4C3)cc2)cc1,1.6
18,CCOC(=O)CC1C(=O)NCCN1S(=O)(=O)c1ccc(C)cc1 (stereo not given),> 51.1
19,O=[N+]([O-])c1ccc(C[n+]2cccc3ccccc32)cc1.[Cl-],41
20,COc1cc(NC(=O)c2ccc(OCc3c(C)noc3C)c(OC)c2)cc(OC)c1,5.4

row,Structure (SMILES),solubility kinetic [µg/mL]
1,Fc1ccc(C2CCCN2Cc2nc(Cc3ccccc3F)no2)cc1 (stereo not given),11.6
2,Cc1cccc(-c2noc(CCC(=O)NC3CCCCC3)n2)c1,3.4
3,O=C(NCCCCc1ccccc1)Nc1ccc(F)cc1F,0.3
4,CN(C(=O)Cn1nc(C(=O)O)c2ccccc2c1=O)C1CCCCC1,> 51.5
5,COc1ccc(NC(=O)CN2CCN(CC#N)CC2)cc1,> 43.3
6,O=C(COC(=O)c1ccc(Cl)nc1)NCCc1ccc(Cl)cc1,21.4
7,COc1ccc(C2(C(=O)NCCc3ccccc3)CCCC2)cc1,31.1
8,O=C(Cn1cc(C(=O)c2ccccc2F)c2ccccc21)NC1CC1,2
9,O=[N+]([O-])c1ccccc1S(=O)(=O)N/C(=N/S(=O)(=O)c1ccccc1)c1ccccc1,> 66.8
10,CC(C)C(=O)N1CCN(c2ccccc2NC(=O)c2ccco2)CC1,48
11,CCn1cc([N+](=O)[O-])c(=O)c2cc(F)c(N3CCOCC3)cc21,13.5
12,CCCCN(c1ccccc1)S(=O)(=O)c1cccc2cccnc12,9
13,Cl.Nc1cccc(Nc2ncnc3ccccc23)c1,31.9
14,Cc1ccccc1C(=O)NNC(=O)c1ccc2nc[nH]c2c1,> 44.1
15,COCCC(=O)N1CCc2c([nH]c3ccccc23)C1C(C)(C)C (stereo not given),> 47.2
16,Cl.O=S(=O)(NCCN1CCOCC1)c1cccs1,> 46.9
17,O=C(O)c1ccc(/C=N/N2CCN(c3ccccc3)CC2)cc1,> 46.4
18,CCOc1ccc(/C=C/c2[nH]c(=O)[nH]c(=O)c2[N+](=O)[O-])cc1,13.2
19,O=S(=O)(c1ccc2ccccc2c1)N1CCOCC1,20.2
20,O=C(CSc1ccc(F)cc1)Nc1ccc2c(c1)C(=O)NC2=O,31.6
